Measured values taken from patent US20230293458A1, “MULTIBIOTIC AGENTS AND METHODS OF USING THE SAME” (Flagship Pioneering Innovations V, Inc., priority 2017, published 2023).

What was measured:
[1] = Stability of multibiotic agents in Simulated Gastric Fluid (SGF); format: in vitro ADME; settings: simulated gastric fluid pH 1.6 with pepsin, 37° C., 1 μM
Procedure: Assay 3. Stability of multibiotic agents in Simulated Gastric Fluid (SGF). This assay can be used to assess the stability of a multibiotic agent in a stomach.
Medium was prepared by dissolving 2 g of sodium chloride in 0.6 L in ultrapure water (MilliQ®, Millipore Sigma, Darmstadt, Germany). The pH was adjusted to 1.6 with 1 N hydrochloric acid, and the volume was then adjusted to 1 L with purified water.
60 mg FaSSIF powder (Biorelevant™, London, UK) were dissolved in 500 mL buffer (above). Pepsin was added (0.1 mg/mL) (Millipore Sigma, Darmstadt, Germany), and the solution was stirred. The resulting SGF media were used fresh for each experiment.
Test compounds were dissolved in DMSO stock to 1 mM. An aliquot of the DMSO stock solution was removed and diluted in the SGF Media in 15 mL falcon tubes to generate a total compound concentration of 1 μM. A 1 mL aliquot was immediately removed and diluted once with 1 volume of acetonitrile for T0 timepoint. The mixture was sealed and mixed at 37° C. in an incubator. Aliquots (1 mL) were removed at regular intervals and immediately quenched by the addition of 1 volume of acetonitrile. The resulting samples were analyzed by LC/MS to determine degradation rates in SGF.

[2] = Stability of multibiotic agents in Simulated Intestinal Fluid (SIF); format: in vitro ADME; settings: simulated intestinal fluid pH 6.7 with pancreatin, 37° C., 1 μM
Procedure: Assay 2. Stability of multibiotic agents in Simulated Intestinal Fluid (SIF). This assay can be used to assess the stability of a multibiotic agent in a small intestine. Phosphate buffer was prepared by dissolving 0.42 g of sodium hydroxide pellets and 3.95 g of monobasic sodium phosphate monohydrate and 6.19 g of sodium chloride in ultrapure water (MilliQ®, Millipore Sigma, Darmstadt, Germany). The pH was adjusted to 6.7 using aq. HCl and aq. NaOH, as necessary, and the solution was diluted with ultrapure water to produce 1 L of the pH 6.7 buffer. 112 mg FaSSIF powder (Biorelevant™, London, UK) was dissolved in 50 mL of the pH 6.7 buffer. 2 to 3 mL of the resulting solution were then added to 500 mg pancreatin (Millipore Sigma, Darmstadt, Germany). The resulting mixture was agitated by finger tapping the vessel containing the mixture until milky suspension formed. At this time, the remainder of the 50 mL FaSSiF/pH 6.7 buffer solution was added. The resulting suspension was flipped upside down 10 times to produce SIF, which was used fresh. Test compounds are dissolved in DMSO stock to 1 mM. An aliquot of the DMSO stock solution is removed and diluted in the SIF media in 15 mL falcon tubes to produce a mixture with a tested compound concentration of 1 μM. A 1 mL aliquot is immediately removed and diluted once with 1 volume of acetonitrile for T0 timepoint. The mixture is sealed and agitated at 37° C. in an incubator. Aliquots (1 mL) are removed at regular intervals and immediately quenched by the addition of 1 volume of acetonitrile. The resulting samples are analyzed by LC/MS to determine degradation rates.

SMILES	Assay 2 (SGF) (% Remaining @ 4 hours) [1]	Assay 3 (SIF) (% @ Remaining 4 hours) [2]
CC(O)CCOC(=O)c1cc(N)ccc1O (stereo in doubt) [Example 112, [(3R)-3-hydroxybutyl] 5-amino-2-hydroxy-benzoate]	C (>75% of the tested compound remaining)	C (>75% of the tested compound remaining)
CCCC(=O)OCC(OC(=O)CCC)[C@@H](OC(=O)CCC)[C@H](OC(=O)CCC)C(OC(=O)CCC)C(=O)O (stereo in doubt) [Example 113, (2S,3S,4R,5S)-2,3,4,5,6-penta(butanoyloxy)hexanoic acid]	C (>75% of the tested compound remaining)	B (25-75% of the tested compound remaining)
O=C(CCCc1ccccc1)Oc1ccc(/C=C/c2cc(OC(=O)CCCc3ccccc3)cc(OC(=O)CCCc3ccccc3)c2)cc1 [Example 9, [4-[(E)-2-[3,5-bis(4-phenylbutanoyloxy)phenyl]vinyl]phenyl] 4-phenylbutanoate]		C (>75% of the tested compound remaining)
CCCCCCCC(=O)Oc1ccc2c(c1)oc(=O)c1cc(OC(=O)CCCCCCC)c(OC(=O)CCCCCCC)cc12 [Example 57, [8,9-di(octanoyloxy)-6-oxo-benzo[c]chromen-3-yl] octanoate]	C (>75% of the tested compound remaining)	
CCCCCCCC(=O)Oc1ccc(/C=C/c2cc(OC(=O)CCCCCCC)cc(OC(=O)CCCCCCC)c2)cc1 [Example 69, [4-[(E)-2-[3,5-di(octanoyloxy)phenyl]vinyl]phenyl] octanoate]	C (>75% of the tested compound remaining)	
CCCCCCCCCC(=O)Oc1ccc(/C=C/c2cc(OC(=O)CCCCCCCCC)cc(OC(=O)CCCCCCCCC)c2)cc1 [Example 70, [4-[(E)-2-[3,5-di(decanoyloxy)phenyl]vinyl]phenyl] decanoate]	C (>75% of the tested compound remaining)	
CC(C)(COC(=O)CCc1c[nH]c2ccccc12)[C@@H](OC(=O)CCc1c[nH]c2ccccc12)C(=O)NCCCOC(=O)CCc1c[nH]c2ccccc12 [Example 93, 3-[[(2R)-2,4-bis[3-(1H-indol-3-yl)propanoyloxy]-3,3-dimethyl-butanoyl]amino]propyl 3-(1H-indol-3-yl)propanoate]		A (<25% of the tested compound remaining)
O=C(Cc1c[nH]c2ccccc12)O[C@H]1CO[C@H]2[C@@H]1OC[C@H]2OC(=O)Cc1c[nH]c2ccccc12 [Example 109, [(3S,3aR,6R,6aR)-6-[2-(1H-indol-3-yl)acetyl]oxy-2,3,3a,5,6,6a-hexahydrofuro[3,2-b]furan-3-yl] 2-(1H-indol-3-yl) acetate]		A (<25% of the tested compound remaining)
CCCC(=O)O[C@@H]1[C@@H](OC(=O)CCC)[C@H](Oc2ccccc2C(=O)O)OC[C@H]1OC(=O)CCC [Example 120, 2-[(2S,3R,4S,5R)-3,4,5-tri(butanoyloxy)tetrahydropyran-2-yl]oxybenzoic acid]		A (<25% of the tested compound remaining)
CCCC(=O)O[C@@H]1[C@@H](OC(=O)CCC)[C@@H](Oc2ccc(N)cc2C(=O)O)OC[C@@H]1OC(=O)CCC [Example 121, 5-amino-2-[(2R,3R,4S,5S)-3,4,5-tri(butanoyloxy)tetrahydropyran-2-yl]oxy-benzoic acid]		C (>75% of the tested compound remaining)
CCC(=O)O[C@H]1[C@H](OC(=O)CC)COC(OC(=O)CCc2c[nH]c3ccccc23)[C@@H]1OC(=O)CC (stereo partly drawn) [Example 168, [(3R,4S,5R)-3,4,5-tri(propanoyloxy)tetrahydropyran-2-yl] 3-(1H-indol-3-yl)propanoate]	C (>75% of the tested compound remaining)	
